US20050026219A1, “Process for label-free measurement of modified substrate” (Boehringer Ingelheim Pharma GmbH & Co. KG, priority 2001, published 2005)
Where two headings read alike, the source gives them in different places. Each block holds one compound with its values, some of them ahead of it. Ends that are not written are not given here.

Key:
EGF-RK = EGF-RK (Homo sapiens, UniProt P00533); conditions: cited from earlier work
[1] = target: EGF-receptor kinase (EGF-RK) (Homo sapiens, UniProt P00533); conditions: for Optical layer thickness: PGT 10 μg/50 μl, EGF-RK 1 Unit/50 μl, EGF-RK buffer with Brij 35
Procedure: The quantity depends mainly on the volumes which are still to be pipetted, the buffer being intended to make the volume of the phosphorylation assay up to the total of 100 μl.
Then 10 μl of 10% (v/v) DMSO solution are added, or if a substance is to be tested for possible enzyme-modulating properties, 10 μl of a test substance, i.e. a possible inhibitor or activator, dissolved in 10% (v/v) of DMSO, are pipetted in.
If an enzymatic reaction is to take place, the enzyme is added at this stage.
Then the substrate is added. The amounts of the substrates Poly-(Glu, Tyr) 4:1, (SEQ ID NO.:2) M-2165 and (SEQ ID NO.:3) Raytide™ EL used are specified in each case.
The reaction of phosphorylation is started here by the addition of 10 μl of the 1 mM ATP solution.
The incubation time is 30 minutes at +30° C., for example.
After the end of the incubation period, 20 μl of antibody solution (1.6.) are pipetted in, for example. The receptor, in this case the antibody, is used in excess. The amount which corresponds to an excess can very easily be determined by anyone skilled in the art by means of experiments on binding to a sensor surface to which a substance with a receptor binding site is coupled, with increasing amounts of receptor. In the case of reactions of phosphorylation, increasing amounts of receptor are used with a constant amount of substrate and kinase.
The incubation time with the antibody may be, for example, 30 minutes at ambient temperature.
After the end of the incubation period 50 μl of incubation mixture are taken and pipetted into the prepared measuring cell with the sensor to whose surface is coupled a substance with a receptor binding site.
The layer thickness of the sensor is measured, for example, by Reflectometric Interference Spectroscopy (RIfS) using a SPEKOL 1100 simultaneous spectral photometer made by Messrs Zeiss Jena, modified according to Schmitt et al. 1997.
The receptor (in this case the antibody) is used in excess, so that even if there is a total enzymatic reaction (in this case phosphorylation) of the substrate at least a slight binding signal will still be obtained by the binding of the receptor (antibody) to the sensor surface.
The reaction of phosphorylation is started by the addition of ATP.
At the start of the experiment a control and a complete phosphorylation without the addition of inhibitor are carried out.

[2] = Layer thickness formation (binding) on the phospho-tyrosine-AMD sensor surface, RIfS; conditions: for Optical layer thickness (increase): Hepes buffer pH 7.40, Raytide EL or antibody 1.0 μg/50 μl, kinase 1 Unit/50 μl
Procedure: (§1) A conventional aminodextrane (AMD) sensor or a diamino PEG 2000 sensor is used (e.g. Schütz A., 2000; a) Piehler J., et al., 1996; Universität Tübingen, Inst. f. Physikalische and Theoretische Chemie, Germany.)
(§2) 20 μl aliquots of the final solution are immediately added drop by drop to the sensor surface which is about 1 cm^2 in size, and incubated for 8 hours under DMF chamber saturation. Then the sensor is rinsed with DMF and dried in the air.
The buffer used is p60c-src-kinase buffer, pH=7.40, with the final concentrations of 50 mM of Hepes and 30 mM of magnesium chloride in the incubation mixture.
The layer thickness formation of p60c-src-kinase (1 Unit/50 μl) in the presence of Brij 35 is investigated. […] Increasing concentrations of Brij 35 (% v/v) are added to the buffer.
Use of alternative substrates, kinase and sensors in a process according to the invention. […] The buffer used is Hepes buffer pH=7.40 with 50 mM of Hepes and 30 mM of magnesium chloride. The buffer contains 0.5% v/v mercaptoethanol, 0.05% v/v Brij 35 and 10 μg/50 μl albumin.
First, the antibody, then the kinase and the substrate are measured on their own in order to be able to evaluate any non-specific binding.

[3] = Layer thickness formation (binding) on the phospho-tyrosine-diamino-PEG 2000 sensor surface, RIfS; conditions: for Optical layer thickness (binding) / Optical layer thickness (non-specific binding): EGF-RK buffer
Procedure: as §1, §2

[4] = Table 8: EGF-RK buffer with Brij 35, substrate 10 μg/50 μl, EGF-RK 0.1 Unit/50 μl, EGF 0.5 μg/50 μl

Sequence of EGF-receptor kinase (EGF-RK) (P00533 25-1210): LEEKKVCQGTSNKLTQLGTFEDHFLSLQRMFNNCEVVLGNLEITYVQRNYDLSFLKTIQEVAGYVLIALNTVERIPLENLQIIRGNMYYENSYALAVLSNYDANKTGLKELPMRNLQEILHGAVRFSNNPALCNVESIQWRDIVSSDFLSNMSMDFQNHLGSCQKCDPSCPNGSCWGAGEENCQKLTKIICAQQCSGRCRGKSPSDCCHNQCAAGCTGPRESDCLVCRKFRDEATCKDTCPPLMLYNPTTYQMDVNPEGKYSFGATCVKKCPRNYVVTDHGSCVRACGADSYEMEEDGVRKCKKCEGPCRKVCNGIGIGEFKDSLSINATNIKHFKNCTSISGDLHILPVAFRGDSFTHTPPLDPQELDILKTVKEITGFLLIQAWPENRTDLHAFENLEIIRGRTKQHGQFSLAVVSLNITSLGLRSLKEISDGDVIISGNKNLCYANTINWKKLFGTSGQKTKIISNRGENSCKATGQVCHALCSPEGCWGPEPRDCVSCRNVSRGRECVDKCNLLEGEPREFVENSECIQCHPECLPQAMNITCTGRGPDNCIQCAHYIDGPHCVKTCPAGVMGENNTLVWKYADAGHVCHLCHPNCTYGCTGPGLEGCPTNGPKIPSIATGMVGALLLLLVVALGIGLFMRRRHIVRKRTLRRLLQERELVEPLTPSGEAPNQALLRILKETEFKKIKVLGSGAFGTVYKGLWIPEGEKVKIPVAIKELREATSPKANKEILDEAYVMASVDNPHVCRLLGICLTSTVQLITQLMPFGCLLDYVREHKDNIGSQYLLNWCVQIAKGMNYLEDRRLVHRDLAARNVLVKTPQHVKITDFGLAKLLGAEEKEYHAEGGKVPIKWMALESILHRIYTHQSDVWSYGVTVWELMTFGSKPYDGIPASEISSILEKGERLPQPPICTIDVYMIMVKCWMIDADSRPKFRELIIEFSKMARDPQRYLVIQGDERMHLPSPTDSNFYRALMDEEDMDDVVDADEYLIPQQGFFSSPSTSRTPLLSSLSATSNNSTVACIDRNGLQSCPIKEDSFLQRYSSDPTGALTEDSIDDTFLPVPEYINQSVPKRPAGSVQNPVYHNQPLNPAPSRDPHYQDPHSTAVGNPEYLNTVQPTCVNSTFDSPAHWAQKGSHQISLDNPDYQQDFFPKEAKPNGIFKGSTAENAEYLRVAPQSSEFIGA
Sequence of EGF-RK (P00533 25-1210): as above

Compound: O=CN/C=C/c1cc(O)ccc1O [Erbstatin]
- Inhibitor strength described in the literature (EGF-RK): weak inhibitor

Compound: COC(=O)/C=C/c1cc(O)ccc1O [erbstatin analogue, Erbstatin Analogue]
- Optical layer thickness ([1]; 10^-3M inhibitor): 1.170 nm
- Optical layer thickness ([1]; 10^-4M inhibitor): 0.728 nm
- Optical layer thickness ([1]; 10^-5M inhibitor): 0.702 nm
- Optical layer thickness ([1]; 10^-6M inhibitor): 0.442 nm
- Optical layer thickness ([1]; 10^-7M inhibitor): 0.489 nm
- Optical layer thickness ([1]; 10^-8M inhibitor): 0.526 nm
- Inhibition of phosphorylation ([1]; up to 10^-3M): incomplete even at higher concentrations

- Optical layer thickness, component on its own ([2]; Table 13: Hepes buffer pH 7.40, 0.5% mercaptoethanol, 0.05% Brij 35, albumin 10 μg/50 μl, M-2165 10 μg/50 μl, p60c-src-kinase 4 Units/50 μl): 0.230 nm
- Optical layer thickness, component on its own ([3]; Table 13 a: Hepes buffer pH 7.40, 0.5% mercaptoethanol, 0.05% Brij 35, albumin 10 μg/50 μl, M-2165 10 μg/50 μl, p60c-src-kinase 2 Units/50 μl): 0.285 nm
Compound: Ac-Ile-Tyr-Gly-Glu-Phe-NH2 (Ac-IYGEF-NH2; also: phosphorylated, site not given here) [M-2165, Oligopeptide kinase substrate, Messrs; Bachem]

- Optical layer thickness (binding) ([3]; EGF 0.5 Units + Brij 35 (0.01% v/v)): 0.320 nm
- Optical layer thickness (binding) ([3]; EGF 0.5 Units, no Brij 35): 0.814 nm
- Optical layer thickness (binding) ([3]; EGF 1.0 Units + Brij 35 (0.01% v/v)): 0.484 nm
- Optical layer thickness (binding) ([3]; EGF 1.0 Units, no Brij 35): 0.833 nm
- Optical layer thickness, component on its own [3, 4]: 0.355 nm
Compound: EGF: Epidermal Growth Factor, activator for phosphorylation with EGF-RK

- Optical layer thickness (increase) ([2]; with 0.001% Brij 35 (v/v)): 0.067 nm
- Optical layer thickness (increase) ([2]; with 0.002% Brij 35 (v/v)): 0.083 nm
- Optical layer thickness (increase) ([2]; with 0.01% Brij 35 (v/v)): 0.000 nm
- Optical layer thickness (increase) ([2]; with 0.02% Brij 35 (v/v)): 0.000 nm
- Optical layer thickness (increase) ([2]; with 0.1% Brij 35 (v/v)): 0.000 nm
- Optical layer thickness (increase) ([2]; with 0.2% Brij 35 (v/v)): 0.000 nm
- Optical layer thickness (increase) ([2]; without Brij 35): 0.169 nm
- Optical layer thickness, component on its own ([3]; Table 12: EGF-RK buffer with Brij 35, Raytide EL 2 μg/50 μl, EGF-RK 0.5 Units/50 μl): 0.127 nm
Compound: Lys-Lys-Lys-Gly-Pro-Trp-Leu-Glu-Glu-Glu-Glu-Glu-Ala-Tyr-Gly-Trp-Leu-Asp-Phe (KKKGPWLEEEEEAYGWLDF; also: phosphorylated modified substrate, site not given here) [Raytide ™ EL, Protein-tyrosine-kinase substrate, Messrs; Calbiochem]

- Optical layer thickness (non-specific binding) ([3]; 0.5 μg PGT): 0.064 nm
- Optical layer thickness (non-specific binding) ([3]; 1.0 μg PGT): 0.026 nm
- Optical layer thickness (non-specific binding) ([3]; 2.0 μg PGT): 0.000 nm
- Optical layer thickness (non-specific binding) ([3]; 5.0 μg PGT): 0.052 nm
- Optical layer thickness (non-specific binding) ([3]; 10 μg PGT): 0.065 nm
- Optical layer thickness (non-specific binding) ([3]; 20 μg PGT): 0.054 nm
- Optical layer thickness (non-specific binding) ([3]; 50 μg PGT): 0.113 nm
- Optical layer thickness (non-specific binding) ([3]; 100 μg PGT): 0.084 nm
- Optical layer thickness, component on its own [3, 4]: 0 nm
- Optical layer thickness, component on its own ([3]; Table 9: EGF-RK buffer with Brij 35, substrate 10 μg/50 μl, EGF-RK 2 Units/50 μl): 0 nm
Compound: Poly-(Glu, Tyr) 4:1 [PGT]
